From paper PMC9369335, “Tailoring the Structure of Cell Penetrating DNA and RNA Binding Nucleopeptides” (International Journal of Molecular Sciences, 2022)
Square brackets hold non-standard residues; d marks the D form. Peptide text beside a SMILES is read from it. * marks the point of attachment. FITC = O=C1OC2(c3ccc(O)cc3Oc3cc(O)ccc32)c2ccc(NC(=S)*)cc21; Acetyl(thymin-1-yl) = Cc1cn(CC(=O)*)c(=O)[nH]c1=O; Dab = NCC[C@H](N)C(=O)O; Ahx = NCCCCCC(=O)O

Tested on: HT29, CCRF-CEM and Jurkat cells
Assay: Cellular and nuclear uptake of FITC-labelled nucleopeptides by flow cytometry
Type: cell-based, human
Conditions: 10 µM, 3 h, 37 °C, comparison in words
Experimental: The promising results achieved with 32 and 33 in terms of DNA and RNA recognition and binding studies prompted us to investigate their capability to cross the cellular membrane and to distribute between cytoplasm and nucleus. Specifically, cell penetration experiments were carried out employing 34 and 35 (the FITC-labelled derivatives of 32 and 33, respectively) on three different cancer cell lines (Jurkat, HT29 and CEM). […]
The fluorescence of Fluorescein Isothiocyanate (FITC) (excitation 488 nm, emission 525 nm) was used to evaluate the intracellular and intranuclear nucleopeptides uptake using flow cytometry. […] To evaluate cellular uptake, the cell pellets were suspended in 500 µL of PBS and analyzed by flow cytometry. For nuclear uptake, the nuclei were extracted with PBS-Triton (0.5%) for 15 min at room temperature (RT), washed with PBS-Triton (0.1%), suspended in 500 µL of PBS and analyzed by FACS ARIA III flow cytometry (BD Bioscience, Mountain View, CA, USA) with DIVA software 8.01. […] The uptake was evaluated as mean fluorescence and was analyzed using FlowJo 10.7.1 software.

concentration in cytoplasm (cellular uptake, mean fluorescence) (1 × 10^6 cells): significantly higher than 35
concentration in nucleus (nuclear uptake, mean fluorescence) (nuclei extracted with PBS-Triton 0.5%): significantly higher than 35
SMILES: Cc1cn(CC(=O)NCC[C@H](NC(=O)CCCCCNC(=S)Nc2ccc3c(c2)C(=O)OC32c3ccc(O)cc3Oc3cc(O)ccc32)C(=O)N[C@@H](CCCNC(=N)N)C(=O)N[C@@H](CCNC(=O)Cn2cc(C)c(=O)[nH]c2=O)C(=O)N[C@@H](CCCNC(=N)N)C(=O)N[C@@H](CCNC(=O)Cn2cc(C)c(=O)[nH]c2=O)C(=O)N[C@@H](CCCNC(=N)N)C(=O)N[C@@H](CCNC(=O)Cn2cc(C)c(=O)[nH]c2=O)C(=O)N[C@@H](CCCNC(=N)N)C(=O)N[C@@H](CCNC(=O)Cn2cc(C)c(=O)[nH]c2=O)C(=O)N[C@@H](CCCNC(=N)N)C(=O)N[C@@H](CCNC(=O)Cn2cc(C)c(=O)[nH]c2=O)C(=O)N[C@@H](CCCNC(=N)N)C(N)=O)c(=O)[nH]c1=O [compound 34] ({FITC-Ahx}-[Dab](Acetyl(thymin-1-yl))R[Dab](Acetyl(thymin-1-yl))R[Dab](Acetyl(thymin-1-yl))R[Dab](Acetyl(thymin-1-yl))R[Dab](Acetyl(thymin-1-yl))R[Dab](Acetyl(thymin-1-yl))R-NH2)
